Data on three molecules can be found in patent US6992111B2, “Fungicide” (Valent BioSciences Corporation, priority 2003, dated 2006).

Each structure is given as a SMILES string.

The subject of data set [1] is Botrytis cinerea. Description: Contact evaluation (microtiter plate fungal growth). The class given is cell-based. The protocol: (§1) Compound solution: Contact evaluations were conducted to determine the anti-fungal activity of each compound against Botrytis cinerea, Sclerotinia sclerotiorum, Pythium aphanidermatum, Rhizoctonia solani, Cercospora arachidicola, Mycosphaerella fijiensis, and Monilinia laxa. Five milligrams of each compound were dissolved in 0.5 milliliter of DMSO for a compound stock solution of 1.0% w/v. Compound stock solutions were serial diluted with DMSO to 20, 10, and 2 ppm final well concentration.
(§2) Fungi preparation: Botrytis cinerea spores were taken from 6-week-old cultures grown at 22 C on full strength potato dextrous agar (PDA) plates. Sclerotinia sclerotiorum, Pythium aphanidermatum, Rhizoctonia solani, and Monilinia laxa mycelia were taken from 4- to 10-day-old shake flask cultures grown at room temperature on full strength potato dextrous broth (PDB). Cercospora arachidicola mycelia were taken from 10- to 14-day-old shake flask cultures grown at room temperature on a full strength PDB amended with peanut oil. Mycosphaerella fijiensis mycelia were taken from 10- to 14-day-old shake flask cultures grown at room temperature on V8 juice broth. Sclerotinia sclerotiorum, Pythium aphanidermatum, Rhizoctonia solani, Cercospora arachidicola, and Mycosphaerella fijiensis mycelia (0.4 g mycelia) were blended for 45 seconds in 20 mL sterile de-ionized water. Monilinia laxa mycelia (1 g mycelia) was blended for 45 seconds in 30 mL of sterile de-ionized water. Botrytis cinerea spores were diluted with quarter strength PDB to 1×10^5 spores/mL final well concentration. All mycelia were diluted in water (1:5 mycelia:water) before distributing into the wells.
(§3) Microtiter plate preparation: Compound solution (10:L), quarter strength PDB (900:L) and fungi preparation (100:L) were sequentially distributed into 48-well microtiter plates (n=3 replications/compound/rate). A blank consisted of quarter strength PDB and fungi preparation. Commercial fungicide controls (100 ppm diluted with water) consisted of Scala for Botrytis cinerea, Dithane F-45 for Mycosphaerella fijiensis, and Benlate for Sclerotinia sclerotiorum, Pythium aphanidermatum, Rhizoctonia solani, Cercospora arachidicola, and Monilinia laxa. Plates were shaken in a circular rotator at room temperature for 20 minutes, then incubated at 25C for 24 to 72 hours, depending on the pathogen.
(§4) Fungal control ratings: Fungal growth in wells containing the compounds were compared to the positive control and fungal inhibition was rated as full, partial, or none. Final readings were the average of the three wells (Table 1).

The next data set deals with Cercospora arachidicola. The data set is described as above. The class given is cell-based. Here is the method: as §1, §2, §3, §4
Another data set concerns Monilinia laxa. The data set is described as above. The class given is cell-based. Here is the method: as §1, §2, §3, §4
The next data set deals with Mycosphaerella fijiensis. Described as above. The class given is cell-based. The protocol: as §1, §2, §3, §4
For the next data set, the system named is Pythium aphanidermatum. The data set is described as above. Type of data set: cell-based. The protocol: as §1, §2, §3, §4
The test system of the next data set is Rhizoctonia solani. The data set is described as above. Type of data set: cell-based. Particulars: Rhizoctinia solani. Here is the method: as §1, §2, §3, §4
A further data set deals with Sclerotinia sclerotiorum. The description is as above. The class given is cell-based. Particulars: Sclerotinia sclerotionum. The protocol:
Contact Evaluation. Compound solution: Contact evaluations were conducted to determine the anti-fungal activity of each compound against Botrytis cinerea, Sclerotinia sclerotiorum, Pythium aphanidermatum, Rhizoctonia solani, Cercospora arachidicola, Mycosphaerella fijiensis, and Monilinia laxa. Five milligrams of each compound were dissolved in 0.5 milliliter of DMSO for a compound stock solution of 1.0% w/v. Compound stock solutions were serial diluted with DMSO to 20, 10, and 2 ppm final well concentration. Fungi preparation: Botrytis cinerea spores were taken from 6-week-old cultures grown at 22 C on full strength potato dextrous agar (PDA) plates. Sclerotinia sclerotiorum, Pythium aphanidermatum, Rhizoctonia solani, and Monilinia laxa mycelia were taken from 4- to 10-day-old shake flask cultures grown at room temperature on full strength potato dextrous broth (PDB). Cercospora arachidicola mycelia were taken from 10- to 14-day-old shake flask cultures grown at room temperature on a full strength PDB amended with peanut oil. Mycosphaerella fijiensis mycelia were taken from 10- to 14-day-old shake flask cultures grown at room temperature on V8 juice broth. Sclerotinia sclerotiorum, Pythium aphanidermatum, Rhizoctonia solani, Cercospora arachidicola, and Mycosphaerella fijiensis mycelia (0.4 g mycelia) were blended for 45 seconds in 20 mL sterile de-ionized water. Monilinia laxa mycelia (1 g mycelia) was blended for 45 seconds in 30 mL of sterile de-ionized water. Botrytis cinerea spores were diluted with quarter strength PDB to 1×10^5 spores/mL final well concentration. All mycelia were diluted in water (1:5 mycelia:water) before distributing into the wells. Microtiter plate preparation: Compound solution (10:L), quarter strength PDB (900:L) and fungi preparation (100:L) were sequentially distributed into 48-well microtiter plates (n=3 replications/compound/rate). A blank consisted of quarter strength PDB and fungi preparation. Commercial fungicide controls (100 ppm diluted with water) consisted of Scala for Botrytis cinerea, Dithane F-45 for Mycosphaerella fijiensis, and Benlate for Sclerotinia sclerotiorum, Pythium aphanidermatum, Rhizoctonia solani, Cercospora arachidicola, and Monilinia laxa. Plates were shaken in a circular rotator at room temperature for 20 minutes, then incubated at 25C for 24 to 72 hours, depending on the pathogen. Fungal control ratings: Fungal growth in wells containing the compounds were compared to the positive control and fungal inhibition was rated as full, partial, or none. Final readings were the average of the three wells (Table 1).

Data set [2] relates to Botrytis cinerea. As to the kind of experiment: Detached bean leaf bioassay, fungal control. The note with it: 200 ppm on detached bean leaf; 100 minus percent necrotic area, three days after inoculation. The class given is in vivo. Here is the method:
Detached Bean Leaf Bioassay
Compound solution: Compound solutions were prepared by diluting compound stock solutions (1.0% w/v compound in DMSO) to 200 ppm with 0.01% w/v Triton X-100.
Spore solution preparation: Botrytis cinerea spores were taken from 6-week-old cultures grown at 22 C on full strength potato dextrous agar (PDA) plates and harvested in 1:16 frozen orange juice concentrate:water. Botrytis cinerea spore solutions were prepared by diluting spore cultures to 5×10^4 spores/mL with 1:16 frozen orange juice concentrate:water.
Plant material: Middle trifoliate leaves of greenhouse grown Phaseolus vulgaris (Bush bean cv. Blue Lake 274) were excised and placed on a plastic grid above a tray containing moist towels.
Treatment method: One half of the adaxial surface of the leaf was treated with the compound solution (100:L) using a 3 cm Bacti Cell Spreader. A blank consisted of 0.01% w/v Triton X-100. A commercial fungicide control (200 ppm diluted with water) consisted of Scala. After the solutions dried, the trays containing the leaves were covered and held one day in a growth chamber (22 C). The adaxial surfaces of the leaves were then inoculated with 5–60:L droplets of Botrytis cinerea spore solution.
Fungal control rating: Three days after inoculation with Botrytis, the percent necrotic area under the inoculation droplet was determined. Since the areas under the blank (0.01% w/v Triton X-100) were 100% infected, fungal control was expressed as 100 minus the percent necrotic area, and thus 0% infected is 100% fungal control (n=3 leaves/compound, 5 inoculation droplets/leaf, Table 2).

For data set [3], the system named is Phaseolus vulgaris (Bush bean cv. Blue Lake 274) leaves. As to the kind of experiment: Detached bean leaf bioassay, phytotoxicity rating. Type of data set: in vivo. Here is the method:
Detached Bean Leaf Bioassay Compound solution: Compound solutions were prepared by diluting compound stock solutions (1.0% w/v compound in DMSO) to 200 ppm with 0.01% w/v Triton X-100. Plant material: Middle trifoliate leaves of greenhouse grown Phaseolus vulgaris (Bush bean cv. Blue Lake 274) were excised and placed on a plastic grid above a tray containing moist towels. Treatment method: One half of the adaxial surface of the leaf was treated with the compound solution (100:L) using a 3 cm Bacti Cell Spreader. A blank consisted of 0.01% w/v Triton X-100. A commercial fungicide control (200 ppm diluted with water) consisted of Scala. After the solutions dried, the trays containing the leaves were covered and held one day in a growth chamber (22 C). The adaxial surfaces of the leaves were then inoculated with 5–60:L droplets of Botrytis cinerea spore solution. Phytotoxicity ratings: Phytotoxicity was rated as 0=no phytotoxicity, 1=slight phytotoxicity, 2=moderate phytotoxicity, or 3=excessive phytotoxicity (Table 2).

Take `O=[N+]([O-])c1ccc(O)c(-c2ccc(C(F)(F)F)cc2)c1` [X = CF3]: the “Control of fungi (full, partial, none)” value in the data set on Botrytis cinerea [1] (fungicide rate 2 ppm), in the data set with Botrytis cinerea [1] (fungicide rate 10 ppm), in the data set with Botrytis cinerea [1] (fungicide rate 20 ppm), in the data set with Cercospora arachidicola (fungicide rate 2 ppm), in the data set with Cercospora arachidicola (fungicide rate 10 ppm) and in the data set with Cercospora arachidicola (fungicide rate 20 ppm) was “Full” throughout. For the same molecule, the “Control of fungi (full, partial, none)” value in the data set on Monilinia laxa (fungicide rate 2 ppm), in the data set with Monilinia laxa (fungicide rate 10 ppm), in the data set on Monilinia laxa (fungicide rate 20 ppm), in the data set with Mycosphaerella fijiensis (fungicide rate 2 ppm), with Mycosphaerella fijiensis (fungicide rate 10 ppm) and in the data set with Mycosphaerella fijiensis (fungicide rate 20 ppm) was “Full” each time. The “Control of fungi (full, partial, none)” value is “Full” in the data set with Pythium aphanidermatum (fungicide rate 2 ppm); “Full” with Pythium aphanidermatum (fungicide rate 10 ppm); “Full” in the data set on Pythium aphanidermatum (fungicide rate 20 ppm); “Partial” with Rhizoctonia solani (fungicide rate 2 ppm); “Full” in the data set with Rhizoctonia solani (fungicide rate 10 ppm); “Full” in the data set on Rhizoctonia solani (fungicide rate 20 ppm). In addition, the “Control of fungi (full, partial, none)” value in the data set on Sclerotinia sclerotiorum (fungicide rate 2 ppm), in the data set with Sclerotinia sclerotiorum (fungicide rate 10 ppm) and in the data set on Sclerotinia sclerotiorum (fungicide rate 20 ppm) was “Full” each time. For the same molecule, the “Botrytis cinerea control (200 ppm)” value in the data set with Botrytis cinerea [2] came out at 100%. The “Phytotoxity (200 ppm)” value in data set [3] was “Moderate”.

With `O=[N+]([O-])c1ccc(O)c(-c2ccc(Cl)cc2)c1` [X = Cl], the “Control of fungi (full, partial, none)” value in the data set with Botrytis cinerea [1] (fungicide rate 2 ppm), in the data set on Botrytis cinerea [1] (fungicide rate 10 ppm), in the data set on Botrytis cinerea [1] (fungicide rate 20 ppm), in the data set on Cercospora arachidicola (fungicide rate 2 ppm), in the data set with Cercospora arachidicola (fungicide rate 10 ppm) and in the data set with Cercospora arachidicola (fungicide rate 20 ppm) was “Full” in each case. Besides, the “Control of fungi (full, partial, none)” value with Monilinia laxa (fungicide rate 2 ppm), with Monilinia laxa (fungicide rate 10 ppm), in the data set with Monilinia laxa (fungicide rate 20 ppm), with Mycosphaerella fijiensis (fungicide rate 2 ppm), in the data set with Mycosphaerella fijiensis (fungicide rate 10 ppm) and in the data set on Mycosphaerella fijiensis (fungicide rate 20 ppm) was “Full” each time. For the same molecule, the “Control of fungi (full, partial, none)” value in the data set on Pythium aphanidermatum (fungicide rate 2 ppm), in the data set on Pythium aphanidermatum (fungicide rate 10 ppm), in the data set with Pythium aphanidermatum (fungicide rate 20 ppm), in the data set with Rhizoctonia solani (fungicide rate 2 ppm), in the data set on Rhizoctonia solani (fungicide rate 10 ppm) and in the data set with Rhizoctonia solani (fungicide rate 20 ppm) was “Full” throughout. Further, the “Control of fungi (full, partial, none)” value in the data set on Sclerotinia sclerotiorum (fungicide rate 2 ppm), in the data set with Sclerotinia sclerotiorum (fungicide rate 10 ppm) and in the data set with Sclerotinia sclerotiorum (fungicide rate 20 ppm) was “Full” throughout. Moreover, in the data set on Botrytis cinerea [2], the “Botrytis cinerea control (200 ppm)” value is reported as 97%. For the same molecule, the “Phytotoxity (200 ppm)” value in [3] is reported as “Moderate”.

For `O=[N+]([O-])c1ccc(O)c(-c2ccc(F)cc2)c1` [X = F], the “Control of fungi (full, partial, none)” value in the data set on Botrytis cinerea [1] (fungicide rate 2 ppm) is “Partial”; in the data set with Botrytis cinerea [1] (fungicide rate 10 ppm), “Full”; in the data set on Botrytis cinerea [1] (fungicide rate 20 ppm), “Full”; in the data set on Cercospora arachidicola (fungicide rate 2 ppm) it was “Full”; in the data set on Cercospora arachidicola (fungicide rate 10 ppm) it was “Full”; with Cercospora arachidicola (fungicide rate 20 ppm), “Full”. Moreover, the “Control of fungi (full, partial, none)” value in the data set with Monilinia laxa (fungicide rate 2 ppm) is on record as “Partial”; in the data set on Monilinia laxa (fungicide rate 10 ppm), “Full”; with Monilinia laxa (fungicide rate 20 ppm), “Full”; in the data set with Mycosphaerella fijiensis (fungicide rate 2 ppm), “Full”; with Mycosphaerella fijiensis (fungicide rate 10 ppm), “Full”; in the data set on Mycosphaerella fijiensis (fungicide rate 20 ppm), “Full”. Also, the “Control of fungi (full, partial, none)” value is “Partial” in the data set on Pythium aphanidermatum (fungicide rate 2 ppm); “Full” in the data set with Pythium aphanidermatum (fungicide rate 10 ppm); “Full” in the data set on Pythium aphanidermatum (fungicide rate 20 ppm); “None” in the data set on Rhizoctonia solani (fungicide rate 2 ppm); “Full” in the data set with Rhizoctonia solani (fungicide rate 10 ppm); “Full” in the data set with Rhizoctonia solani (fungicide rate 20 ppm). Besides, the “Control of fungi (full, partial, none)” value with Sclerotinia sclerotiorum (fungicide rate 2 ppm), in the data set with Sclerotinia sclerotiorum (fungicide rate 10 ppm) and with Sclerotinia sclerotiorum (fungicide rate 20 ppm) was “Full” in each case. In addition, the “Botrytis cinerea control (200 ppm)” value in the data set with Botrytis cinerea [2] was determined as 31%. Besides, the “Phytotoxity (200 ppm)” value in data set [3] is reported as “None”.
